Source: patent US11466010B2, “Toll-like receptor 8 (TLR8) specific antagonists and methods of making and uses thereof” (The Regents of the University of Colorado, a body corporate, priority 2017, dated 2022)

Molecular target: T1, TLR8 (Homo sapiens, UniProt Q9NR97)
T1 construct: hTLR8, residues 27-827; made in house
T1 sequence (Q9NR97 27-827): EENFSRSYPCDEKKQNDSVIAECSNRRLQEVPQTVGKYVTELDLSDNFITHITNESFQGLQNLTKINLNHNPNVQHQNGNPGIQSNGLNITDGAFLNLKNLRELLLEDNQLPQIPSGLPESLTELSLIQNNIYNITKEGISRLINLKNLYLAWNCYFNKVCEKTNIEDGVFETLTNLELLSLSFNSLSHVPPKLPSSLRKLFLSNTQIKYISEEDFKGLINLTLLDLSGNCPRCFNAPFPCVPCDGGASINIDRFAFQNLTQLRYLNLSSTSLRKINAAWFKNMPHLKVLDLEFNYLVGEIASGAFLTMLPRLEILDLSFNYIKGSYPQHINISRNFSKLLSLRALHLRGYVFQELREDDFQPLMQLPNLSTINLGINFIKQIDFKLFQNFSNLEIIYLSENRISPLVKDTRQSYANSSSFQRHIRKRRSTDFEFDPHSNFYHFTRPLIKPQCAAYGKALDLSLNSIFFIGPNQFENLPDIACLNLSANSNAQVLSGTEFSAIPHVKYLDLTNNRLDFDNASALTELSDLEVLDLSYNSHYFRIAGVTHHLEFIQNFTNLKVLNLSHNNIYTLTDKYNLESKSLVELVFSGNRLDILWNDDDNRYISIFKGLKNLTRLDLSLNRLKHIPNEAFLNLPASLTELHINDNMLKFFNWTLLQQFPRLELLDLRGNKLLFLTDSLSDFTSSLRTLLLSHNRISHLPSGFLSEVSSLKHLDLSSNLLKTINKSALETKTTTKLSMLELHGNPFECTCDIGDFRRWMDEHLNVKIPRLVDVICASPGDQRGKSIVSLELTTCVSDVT
Assay: Gel filtration chromatography of TLR8 dimerization
Assay type: binding
Conditions: diluted TLR8, dose-dependent
Method: Gel filtration chromatography with diluted TLR8 proteins, in which TLR8 exists as a monomer, was conducted to determine the dimerization state of TLR8 in the absence and presence of different ligands (FIGS. 10A and 10B).

- retention volume of TLR8 (dimer stabilization in solution): smaller retention volume
Structure (SMILES): Cc1cc(-c2ccnc3cc(O)ccc23)ccc1O [Compound 11b, 2-Methyl-4-(7-hydroxyl-4-quinolinyl)-phenol]
